The results in this text go back to ChEMBL document CHEMBL4706551, “Rational design of new multitarget histamine H receptor ligands as potential candidates for treatment of Alzheimer's disease” (Eur J Med Chem, 2020).

Data set [1] deals with Rattus norvegicus. Kind of data set: Memory enhancement effect in dizocilpine-induced Wistar (Krf:WI) rat model of amnesia assessed as decrease in transfer latency time at 1.25 to 5 mg/kg, ip measured after 30 to 45 mins by elevated plus maze test. It counts as functional, organism-based. The note with it: dose 1.25-5 mg/kg, time 30-45 min.
Another data set can be described thus: in vitro. The note with it: PAMPA, pH 7.4. (In general: The PAMPA barrier holds no transporters, so it reflects passive diffusion.)
The target of data set [2] is Cholinesterase (Equus caballus, UniProt P81908).
Description: Inhibition of equine serum BChE using BTCI as substrate incubated for 5 mins followed by substrate addition and measured after 5 mins by spectrophotometric based Ellman's method
In data set [3] the target is Cholinesterase (Equus caballus) (UniProt P81908). Kind of data set: Non-competitive inhibition of equine serum BChE using BTCI as substrate incubated for 5 mins followed by substrate addition and measured after 5 mins by spectrophotometric based Lineweaver-Burk plot analysis. The note with it: time 10.0 min. The format is cell-free.
For data set [4], the system named is Rattus norvegicus. Kind of data set: Analgesic activity in carragenan-induced thermal hyperalgesia model of Wistar (Krf:WI) rat assessed as latency of nociceptive response for radiant heat stimulation at 30 mg/kg treated prior to carrageenan challenge and measured after 1 hr (reference value: 71.4%). It counts as functional.
Data set [5] deals with Rattus norvegicus. Kind of data set: Analgesic activity in carragenan-induced thermal hyperalgesia model of Wistar (Krf:WI) rat assessed as latency of nociceptive response for radiant heat stimulation at 30 mg/kg treated prior to carrageenan challenge and measured after 2 hrs (reference value: 63.6%). The format is functional.
Data set [6] has as its target Cholinesterase (Equus caballus) (UniProt P81908). Kind of data set: Non-competitive inhibition of equine serum BChE using BTCI as substrate incubated for 5 mins followed by substrate addition and measured after 5 mins by spectrophotometric based Cornish-Bowden plot analysis. It counts as cell-free. The note with it: time 10.0 min.
In data set [7] the target is T1, Amine oxidase [flavin-containing] B (Homo sapiens, UniProt P27338).
T1 sequence (P27338 whole entry): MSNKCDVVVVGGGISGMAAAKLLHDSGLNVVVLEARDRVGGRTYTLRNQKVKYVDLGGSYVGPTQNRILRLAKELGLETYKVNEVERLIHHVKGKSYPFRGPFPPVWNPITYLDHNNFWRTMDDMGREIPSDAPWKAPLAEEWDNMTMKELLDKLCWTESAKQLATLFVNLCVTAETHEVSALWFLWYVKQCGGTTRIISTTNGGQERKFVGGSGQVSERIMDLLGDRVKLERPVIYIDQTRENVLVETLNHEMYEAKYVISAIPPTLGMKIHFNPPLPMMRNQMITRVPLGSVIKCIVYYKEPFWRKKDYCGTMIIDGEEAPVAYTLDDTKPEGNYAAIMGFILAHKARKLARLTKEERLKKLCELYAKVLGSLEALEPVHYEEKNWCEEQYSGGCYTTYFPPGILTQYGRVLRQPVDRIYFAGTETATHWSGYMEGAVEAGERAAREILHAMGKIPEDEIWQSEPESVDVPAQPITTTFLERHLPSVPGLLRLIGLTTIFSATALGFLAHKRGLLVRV
Kind of data set: biochemical. It counts as cell-based, BTI.
Description: Inhibition of recombinant human MAO-B expressed in baculovirus infected BTI cells using p-tyramine as substrate by fluorometric assay

A further data set has as its target T2, MAO-A (Homo sapiens, UniProt P21397).
T2 sequence (P21397 whole entry): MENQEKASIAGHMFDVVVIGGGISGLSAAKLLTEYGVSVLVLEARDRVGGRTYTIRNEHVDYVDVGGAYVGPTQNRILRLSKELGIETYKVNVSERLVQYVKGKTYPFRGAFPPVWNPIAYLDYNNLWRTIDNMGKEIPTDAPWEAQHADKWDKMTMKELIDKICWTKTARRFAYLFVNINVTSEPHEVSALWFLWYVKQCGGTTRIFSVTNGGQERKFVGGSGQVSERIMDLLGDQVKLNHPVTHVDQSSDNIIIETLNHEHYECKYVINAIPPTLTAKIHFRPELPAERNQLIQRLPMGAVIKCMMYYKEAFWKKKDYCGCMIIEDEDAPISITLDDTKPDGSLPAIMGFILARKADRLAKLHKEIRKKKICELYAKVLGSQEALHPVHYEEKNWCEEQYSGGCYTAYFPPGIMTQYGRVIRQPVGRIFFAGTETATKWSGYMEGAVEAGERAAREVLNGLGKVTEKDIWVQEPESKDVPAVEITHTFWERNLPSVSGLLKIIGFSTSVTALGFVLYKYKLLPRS
Kind of data set: in vitro. The note with it: probe p-tyramine.

Data set [8] relates to Rattus norvegicus. Nature of the data set: Antiinflammatory activity against Wistar (Krf:WI) rat assessed as reduction in carragenan-induced paw edema at 22.5 mg/kg treated prior to carrageenan challenge and measured after 2 hrs by plethysmometry relative to control. It counts as functional.
The test system of data set [9] is Rattus norvegicus. Nature of the data set: Antiinflammatory activity against Wistar (Krf:WI) rat assessed as reduction in carragenan-induced paw edema at 22.5 mg/kg treated prior to carrageenan challenge and measured after 6 hrs by plethysmometry relative to control. The format is functional.
Data set [10] relates to Rattus norvegicus. Kind of data set: Antiinflammatory activity against Wistar (Krf:WI) rat assessed as reduction in carragenan-induced paw edema at 30 mg/kg treated prior to carrageenan challenge and measured after 24 hrs by plethysmometry relative to control. It counts as functional.
The test system of data set [11] is Rattus norvegicus. Nature of the data set: Analgesic activity in Wistar (Krf:WI) rat assessed as inhibition of carrageenan-induced mechanical inflammatory hyperalgesia by measuring paw withdrawl threshold at 22.5 mg/kg treated prior to carrageenan challenge and measured upto 24 hrs (reference value: 88.4 to 90.9 %). It counts as functional. More on the design: scale not given: the % may be the effect or the level left. The note with it: time hrs <=24.

The subject of another data set is Mus musculus. Nature of the data set: Antiallodynic activity in oxaliplatin-induced peripheral neuropathy pain CD-1 mouse model assessed as inhibition of late-phase tactile allodynia by measuring pain sensitivity threshold at 30 mg/kg administered with compound intraperitoneally at 7 days after oxaliplatin stimulation and measured after 30 mins by von Frey test (reference value: 65.3%). It counts as functional. Also on record: scale not given: the % may be the effect or the level left. The note with it: 0.5 h.

The subject of data set [12] is Rattus norvegicus. Kind of data set: Analgesic activity in Wistar (Krf:WI) rat assessed as inhibition of carrageenan-induced mechanical inflammatory hyperalgesia by measuring paw withdrawl threshold at 30 mg/kg treated prior to carrageenan challenge and measured after 3 to 24 hrs (reference value: 88.4 to 90.9 %). More on the design: scale not given: the % may be the effect or the level left. The format is functional. The note with it: time 3-24 hrs.

Data set [13] relates to Rattus norvegicus. Nature of the data set: Antiinflammatory activity against Wistar (Krf:WI) rat assessed as reduction in carragenan-induced paw edema at 22.5 mg/kg treated prior to carrageenan challenge and measured after 1 hr by plethysmometry relative to control. It counts as functional.
The target in another data set is Acetylcholinesterase (Electrophorus electricus, UniProt O42275).
Data set [14] deals with Cholinesterase (Homo sapiens, UniProt P06276).
Description: Inhibition of human BuChE by spectrophotometric based Ellman's method
Data set [15] has as its system Rattus norvegicus. Kind of data set: Antiinflammatory activity against Wistar (Krf:WI) rat assessed as reduction in carragenan-induced paw edema at 30 mg/kg treated prior to carrageenan challenge and measured after 2 hrs by plethysmometry relative to control. The format is functional.
Data set [16] has as its system Rattus norvegicus. Nature of the data set: Memory enhancement effect in dizocilpine-induced Wistar (Krf:WI) rat model of amnesia assessed as increase in step through latency administered with compound intraperitoneally and measured after 30 to 45 mins by step-through passive avoidance test. The note with it: dose 1.25-5 mg/kg, time 30-45 min. It counts as functional, organism-based.

Active and inactive are the calls of the source.

Cholinesterase (Equus caballus), sequence (P81908 whole entry): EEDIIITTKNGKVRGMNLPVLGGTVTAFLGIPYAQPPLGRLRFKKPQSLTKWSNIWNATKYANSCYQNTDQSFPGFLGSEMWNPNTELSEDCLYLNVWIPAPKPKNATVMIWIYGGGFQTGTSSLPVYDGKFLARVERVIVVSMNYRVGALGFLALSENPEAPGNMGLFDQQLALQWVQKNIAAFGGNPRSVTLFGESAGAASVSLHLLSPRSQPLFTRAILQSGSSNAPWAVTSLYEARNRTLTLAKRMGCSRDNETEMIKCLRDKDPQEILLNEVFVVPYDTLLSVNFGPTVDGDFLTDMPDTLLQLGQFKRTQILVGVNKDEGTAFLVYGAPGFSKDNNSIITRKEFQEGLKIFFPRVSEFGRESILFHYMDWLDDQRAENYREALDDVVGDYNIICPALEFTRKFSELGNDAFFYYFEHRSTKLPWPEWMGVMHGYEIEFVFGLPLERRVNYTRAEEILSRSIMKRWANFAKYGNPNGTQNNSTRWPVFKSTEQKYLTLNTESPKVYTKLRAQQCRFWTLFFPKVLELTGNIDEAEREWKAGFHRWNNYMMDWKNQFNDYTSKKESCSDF
Cholinesterase (Homo sapiens, UniProt P06276), sequence (P06276 whole entry): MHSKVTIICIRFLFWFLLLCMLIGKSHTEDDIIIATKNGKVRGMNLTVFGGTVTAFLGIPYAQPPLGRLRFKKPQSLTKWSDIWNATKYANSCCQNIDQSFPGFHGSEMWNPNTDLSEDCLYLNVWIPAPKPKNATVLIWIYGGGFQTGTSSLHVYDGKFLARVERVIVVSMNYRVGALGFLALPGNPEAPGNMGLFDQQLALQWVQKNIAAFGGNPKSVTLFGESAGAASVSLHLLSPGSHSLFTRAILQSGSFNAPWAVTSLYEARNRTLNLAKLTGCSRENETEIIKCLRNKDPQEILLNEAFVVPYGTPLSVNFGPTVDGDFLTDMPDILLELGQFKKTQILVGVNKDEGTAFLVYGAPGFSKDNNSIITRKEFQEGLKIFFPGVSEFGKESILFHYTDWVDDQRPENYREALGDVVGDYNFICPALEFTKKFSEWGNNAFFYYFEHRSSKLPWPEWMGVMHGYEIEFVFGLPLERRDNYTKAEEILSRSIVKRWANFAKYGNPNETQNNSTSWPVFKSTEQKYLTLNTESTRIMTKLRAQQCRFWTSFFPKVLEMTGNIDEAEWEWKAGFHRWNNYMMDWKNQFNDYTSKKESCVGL
Cholinesterase (Equus caballus, UniProt P81908), sequence (P81908 whole entry): as the sequence (P81908 whole entry) above
Acetylcholinesterase, sequence (O42275 whole entry): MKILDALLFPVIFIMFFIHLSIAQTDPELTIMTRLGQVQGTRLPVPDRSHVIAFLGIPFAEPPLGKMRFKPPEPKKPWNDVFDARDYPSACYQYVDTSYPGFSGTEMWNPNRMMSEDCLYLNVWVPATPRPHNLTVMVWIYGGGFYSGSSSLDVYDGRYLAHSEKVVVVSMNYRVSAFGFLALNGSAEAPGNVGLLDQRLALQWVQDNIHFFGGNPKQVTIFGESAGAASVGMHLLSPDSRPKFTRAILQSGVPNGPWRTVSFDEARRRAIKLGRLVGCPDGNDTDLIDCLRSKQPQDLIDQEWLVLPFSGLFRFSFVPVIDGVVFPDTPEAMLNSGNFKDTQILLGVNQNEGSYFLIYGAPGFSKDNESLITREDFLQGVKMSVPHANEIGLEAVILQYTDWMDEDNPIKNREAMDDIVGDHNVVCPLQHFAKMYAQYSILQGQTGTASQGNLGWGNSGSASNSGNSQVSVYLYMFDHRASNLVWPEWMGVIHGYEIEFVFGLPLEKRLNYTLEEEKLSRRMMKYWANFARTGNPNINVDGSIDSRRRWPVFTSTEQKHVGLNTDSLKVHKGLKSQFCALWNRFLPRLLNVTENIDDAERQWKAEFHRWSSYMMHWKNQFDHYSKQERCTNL
Description for Acetylcholinesterase: Inhibition of Electric eel AChE using ATCI as substrate incubated for 5 mins followed by substrate addition and measured after 5 mins by spectrophotometric based Ellman's method
Description for MAO-A: Inhibition of recombinant human MAO-A expressed in baculovirus infected BTI cells at 1 uM using p-tyramine as substrate by fluorometric assay relative to control

The term Papp denotes the rate of passage across a membrane or cell layer, normalised by area and donor concentration. As a reminder, the IC50 is the point on the concentration scale where inhibition reaches its midpoint. As a reminder, the inhibition is the share of the control response that was lost under treatment. What is called inhibition in vivo is the relative decrease from the control value, in per cent. With `O=c1c2ccccc2oc2ccc(OCCCCCN3CCCCCC3)cc12`, the outcome with Rattus norvegicus [1] was Active. The compound also had a Papp at 5 h, 200 µM in the data set “in vitro” of 5.6 ×10⁻⁶ cm/s. In addition, the IC50 on Cholinesterase [2] amounted to 880 nM; in data set [7], 775 nM; against Acetylcholinesterase, 180 nM; at Cholinesterase [14], 1280 nM. For the same compound, the inhibition result in data set [3] and in data set [6] was “Active” in each case. Moreover, the Activity was 130% in the data set on Rattus norvegicus [4]; 102.8% in the data set on Rattus norvegicus [5]; 94.6% in the data set with Rattus norvegicus [11]; 100% in the data set with Mus musculus; 118% with Rattus norvegicus [12]; “Dose-dependent effect” in the data set on Rattus norvegicus [16]. This compound displayed an inhibition at 1 µM against MAO-A of 4%. The inhibition in vivo at 22.5 mg/kg in the data set with Rattus norvegicus [8] is 32.8%; in the data set with Rattus norvegicus [9] it was 19.4%; in the data set with Rattus norvegicus [13], 36.1%. The inhibition in vivo at 30 mg/kg is 57.8% with Rattus norvegicus [10] and 53.3% in the data set on Rattus norvegicus [15].
